Data published in ChEMBL document CHEMBL5385876, “Discovery of unglycosylated indolocarbazoles as ROCK2 isoform-selective inhibitors for the treatment of breast cancer metastasis” (Eur J Med Chem, 2023).
Where a name gives a salt, the structure may show the parent alone.

What was measured:
[1] = Toxicity in BALB/c nude mouse xenografted with human MDA-MB-231 cells harboring Luc-mcherry assessed as reduction in body weight at 15 mg/kg, iv administered once a day for 45 days; type: organism-based; conditions: in vivo, 1080 h, time 45 day
[2] = biological target: Rho-associated protein kinase 2 (Homo sapiens, UniProt O75116); test: Inhibition of N-terminal His10-StrepII tagged human ROCK2 catalytic domain (1 to 553 residues) expressed in Sf9 insect cells by HTRF assay
MDA-MB-231 = test: Antiproliferative activity against human MDA-MB-231 cells assessed as suppression of cell growth incubated for 72 hrs by SRB assay; type: functional, cell-based; conditions: MDA-MB-231, 72 h
SK-OV-3 = test: Antiproliferative activity against human SK-OV-3 cells assessed as suppression of cell growth incubated for 72 hrs by SRB assay; type: functional, cell-based; conditions: SK-OV-3, 72 h

Rho-associated protein kinase 2, sequence (O75116 whole entry, the tested form may be a part): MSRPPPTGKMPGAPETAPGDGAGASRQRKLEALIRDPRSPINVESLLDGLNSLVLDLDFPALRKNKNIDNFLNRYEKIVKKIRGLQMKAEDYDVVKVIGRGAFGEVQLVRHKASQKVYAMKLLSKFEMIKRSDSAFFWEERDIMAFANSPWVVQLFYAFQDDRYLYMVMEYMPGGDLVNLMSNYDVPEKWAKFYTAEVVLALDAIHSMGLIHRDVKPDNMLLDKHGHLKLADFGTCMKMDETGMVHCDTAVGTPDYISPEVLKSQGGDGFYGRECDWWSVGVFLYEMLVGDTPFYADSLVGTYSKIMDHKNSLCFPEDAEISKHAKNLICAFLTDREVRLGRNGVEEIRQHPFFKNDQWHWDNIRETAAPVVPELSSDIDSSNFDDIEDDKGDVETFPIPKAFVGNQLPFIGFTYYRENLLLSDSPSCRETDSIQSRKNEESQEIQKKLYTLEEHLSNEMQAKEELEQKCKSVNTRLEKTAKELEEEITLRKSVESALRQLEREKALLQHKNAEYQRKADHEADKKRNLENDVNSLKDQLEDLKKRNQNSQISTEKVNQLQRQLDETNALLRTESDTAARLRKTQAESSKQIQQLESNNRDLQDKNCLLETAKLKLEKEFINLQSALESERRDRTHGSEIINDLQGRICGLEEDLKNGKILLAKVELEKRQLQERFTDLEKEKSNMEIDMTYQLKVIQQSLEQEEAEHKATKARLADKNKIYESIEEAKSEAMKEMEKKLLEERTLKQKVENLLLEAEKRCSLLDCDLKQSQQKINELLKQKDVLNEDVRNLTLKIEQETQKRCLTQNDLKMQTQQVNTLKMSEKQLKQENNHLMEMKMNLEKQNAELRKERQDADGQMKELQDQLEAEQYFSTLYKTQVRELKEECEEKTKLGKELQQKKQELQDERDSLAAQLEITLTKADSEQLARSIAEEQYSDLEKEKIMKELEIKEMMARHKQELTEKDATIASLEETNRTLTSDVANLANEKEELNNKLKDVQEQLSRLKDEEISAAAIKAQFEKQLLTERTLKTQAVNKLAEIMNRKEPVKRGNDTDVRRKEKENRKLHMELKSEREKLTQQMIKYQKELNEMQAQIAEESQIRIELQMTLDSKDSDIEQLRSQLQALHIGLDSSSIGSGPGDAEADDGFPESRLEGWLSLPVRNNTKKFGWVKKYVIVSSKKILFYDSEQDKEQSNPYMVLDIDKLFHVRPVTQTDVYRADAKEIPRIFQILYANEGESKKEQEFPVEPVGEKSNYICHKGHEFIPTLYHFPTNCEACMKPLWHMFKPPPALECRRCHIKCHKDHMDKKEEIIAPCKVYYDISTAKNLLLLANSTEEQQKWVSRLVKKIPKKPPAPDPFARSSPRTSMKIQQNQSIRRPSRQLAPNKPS

IC50 [2] [nM] | Compound | other results
> 500 | C[C@@H]1O[C@@H]2C[C@](O)([C@H]1O)n1c3ccccc3c3c4c(c5c6ccccc6n2c5c31)C(=O)NC4 | –
> 500 | COc1ccc2[nH]c3c4[nH]c5ccccc5c4c4c(c3c2c1)CNC4=O | –
> 500 | CO[C@@H]1C(C)(O)O[C@@H]2C[C@@]1(OC)n1c3ccccc3c3c4c(c5c6ccccc6n2c5c31)C(=O)NC4 (stereo not given in full) | –
210 | C[C@@H]1O[C@@H]2C[C@](O)([C@H]1O)n1c3ccccc3c3c4c(c5c6cc(O)ccc6n2c5c31)C(=O)NC4 | –

More lines, now with the values behind:

Compound | IC50 [2] [nM] | other results
C[C@@H](N)[C@H]1CC[C@H](C(=O)Nc2ccncc2)CC1 [Y-27632] | – | Activity [1]: Non-Toxic
CC(=O)N[C@H]1C[C@H]2O[C@@](C)([C@@H]1O)n1c3ccccc3c3c4c(c5c6ccccc6n2c5c31)C(=O)NC4 | 60 | –
O=C1NC(O)c2c1c1c3ccccc3[nH]c1c1[nH]c3ccccc3c21 (stereo not given) | > 500 | –
Cc1ccc2[nH]c3c4[nH]c5ccccc5c4c4c(c3c2c1)C(=O)NC4=O | > 500 | –
C[C@]12O[C@H](C[C@]1(O)C(=O)O)n1c3ccccc3c3c4c(c5c6ccccc6n2c5c31)C(=O)NC4=O | 300 | –
COC(=O)[C@@]1(OC)C[C@H]2O[C@]1(C)n1c3ccccc3c3c4c(c5c6ccccc6n2c5c31)C(=O)NC4 | 330 | –
C[C@@H]1O[C@@H](n2c3ccccc3c3c4c(c5c6ccccc6[nH]c5c32)CNC4=O)C[C@@H](NC=O)[C@H]1O | > 500 | –
CN1Cc2c(c3c4ccccc4[nH]c3c3[nH]c4ccccc4c23)C1=O | 510 | –
COc1cccc2c1C(=O)c1c(O)c3c(c(O)c1C2=O)C[C@@](O)(C(=O)CO)C[C@@H]3O[C@H]1C[C@H](N)[C@H](O)[C@H](C)O1 [DOXORUBICIN HYDROCHLORIDE] | – | IC50 (MDA-MB-231): 1010 nM; IC50 (SK-OV-3): 480 nM
COc1cccc2c1[nH]c1c3[nH]c4ccccc4c3c3c(c21)C(=O)NC3=O | > 500 | –
